US4076704A, “Dipeptide derivatives and their production” (Shionogi & Co., Ltd., priority 1974, dated 1978)

Legend:
Type in all cases: in vivo
DS male mice [1] = assay: Anti-pentylenetetrazol activity; conditions: compound given orally 60 minutes prior to 125 mg/kg s.c. pentylenetetrazol, complete protection against mortality, observed 2 hours
Description: 1. Anti-pentylenetetrazol activity
The convulsions were disregarded.

DS male mice [2] = assay: Taming activity (inhibition of electroshock-induced fighting); conditions: compound administered 60 minutes prior, inhibition of fighting responses, 5 pairs
Description: (§1) This test was measured on DS male mice.
These pairs of mice were selected in the morning and used for drug test in the afternoon. The test compound was administered to both mice of the pairs 60 minutes prior to the experiment. Results were obtained as the mean percentage of inhibition of fighting responses in a group of 5 pairs and shown by ED50 [Tedeschi, et al.: J. Pharmacol Exp. Thev., 125, 28-34 (1959)].

DS male mice [3] = assay: Rotarod performance activity; conditions: fall from rod within less than 2 minutes
Description: 3. Rotarod performance activity:
as §1
The mouse was put on a scraped rod of wood, 3 cm in diameter, turning at the rate of five rotations per minute. The mice that could remain on the rod for 3 or more minutes in successive trails were selected and placed in a group of 10 mice for each dose. If the mouse fell down from the rod within less than 2 minutes, the test compound was considered to be effective. Results were shown by ED50 [Dunham, et al.: J. Am. Pharm. Assoc., 46, 208 (1957)].

| SMILES | Anti-pentylenetetrazol activity, ED50 (DS male mice [1]) [mg/kg] | Taming activity ED50 (DS male mice [2]) [mg/kg] | Rotarod performance ED50 (DS male mice [3]) [mg/kg] |
| --- | --- | --- | --- |
| CN(C(=O)CNC(=O)CN)c1ccc(Cl)cc1C(=O)c1ccccc1 [Compound 1, 2-benzoyl-4-chloro-N-methyl-N^α -glycyl-glycinanilide] | 1.0 |  |  |
| CN(C(=O)CNC(=O)CN)c1ccc(Cl)cc1C(=O)c1ccccc1Cl.O [Compound 2, 2-o-chlorobenzoyl-4-chloro-N-methyl-N^α -glycyl-glycinanilide hydrate] | 0.58 | 3.0 |  |
| CN(C(=O)CNC(=O)CN)c1ccc(Cl)cc1C(=O)c1ccccc1F.Cl [Compound 3, 2-o-fluorobenzoyl-4-chloro-N-methyl-N^α -glycyl-glycinanilide hydrochloride] | 0.33 | 1.6 | 17.0 |
| CNC1=Nc2ccc(Cl)cc2C(c2ccccc2)=[N+]([O-])C1 [Compound 4, Chlordiazepoxide, reference compound] |  |  | 50.0 |
